These are literature values, as cited in patent US20240180842A1, “COLON TARGETED DRUG DELIVERY” (Axial Therapeutics, Inc., priority 2022, published 2024).

The data set has as its system ASD individuals with high irritability (ABC-I≥18). To be noted: phase 3 study, drug arms; placebo arm 34.7%.

Molecules are shown by their SMILES.

In the case of `O=C1CCc2ccc(OCCCCN3CCN(c4cccc(Cl)c4Cl)CC3)cc2N1` [aripiprazole], the “response rate (25% improvement in ABC-I scores and CGI-I≤2)” value is 49-56%.
